The assay addresses T1, SYK kinase (Homo sapiens, UniProt P43405).
T1 construct: purchased Invitrogen, Carlsbad
The assay is described as follows: SYK assay (OMNIA Kinase Assay, Invitrogen). The settings on record: apparent Ki calculated from the IC50 using the Cheng-Prusoff equation; 1 mM ATP, 10 μM Peptide Substrate; read-out: SYK Activities: Ki. The format is biochemical. Here is the method:
In the assay OMNIA® KINASE ASSAY by Invitrogen Corporation (Carlsbad) the effect of invention of a compound on the phosphorylation is determined by measurement of fluorescence intensity of a chelation-enhanced fluorophore called SOX. Upon phosphorylation of the peptide by the kinase of interest, Mg2+ is chelated to form a bridge between the SOX moiety and the phosphate group that is transferred to the specific tyrosine on the peptide. The fluorescence intensity is directly proportional to the amount of peptide phosphorylation.
To the wells of an 384 well small volume plate (Greiner, Frickenhausen) are added (i) the compound under test in 5% DMSO/distilled water (2 μl), (ii) 16 μl of the master mix containing ATP, DTT, Kinase Reaction Buffer, Omina Peptide Substrate Tyr 7 resulting in a final concentration of 1 mM ATP, 0.2 mM DTT and 10 μM Peptide Substrate.
The Master Mix and the assay plate was incubated to reaction temperature before the measurement (30° C.). The reaction was started with addition of (iii) 2 μl 4 μg/ml SYK kinase (Invitrogen, Carlsbad). During measurement fluorescence intensitiy readings were collected using a TECAN M1000 at a wavelength of λex 360/λem 485 nm every 30 s for 30 minutes. The reaction velocity was plotted versus the inhibitor concentration to determine the IC50 using XLFit 5.0 (IDBS, Guildford) to fit to a sigmoidal dose response curve, and the apparent Ki values were calculated from the IC50 using the Cheng-Prusoff equation (Cheng, Y.; Prusoff, W. H. Biochem. Pharmacol. 22, 3099-3108, 1973).

This is an account of results in US9499535B2, “Kinase inhibitors” (ORIGENIS GMBH, priority 2011, dated 2016).

In the case of `FC(F)(F)c1cccc(Nc2nc3ccccc3c3c[nH]nc23)c1` [Example #2, (2H-Pyrazolo[3,4-c]quinolin-4-yl)-(3-trifluoromethyl-phenyl)-amine], the Ki was 100 to 1000 nM. Under `c1ccc2c(c1)nc(Nc1ccc3[nH]ncc3c1)c1n[nH]cc12` [Example #4, (1H-Indazol-5-yl)-(2H-pyrazolo[3,4-c]quinolin-4-yl)-amine] stands 100 to 1000 nM; under `c1ccc(Nc2nc3ccccc3c3c[nH]nc23)cc1` [Example #5, Phenyl-(2H-pyrazolo[3,4-c]quinolin-4-yl)-amine], 100 to 1000 nM; under `c1ccc2c(c1)nc(Nc1ccc3cn[nH]c3c1)c1n[nH]cc12` [Example #6, (1H-Indazol-6-yl)-(2H-pyrazolo[3,4-c]quinolin-4-yl)-amine], 10 to 100 nM. Consider `Cc1cc(Nc2nc3ccccc3c3c[nH]nc23)cc2cn[nH]c12` [Example #8, (7-Methyl-1H-indazol-5-yl)-(2H-pyrazolo[3,4-c]quinolin-4-yl)-amine], for which the Ki is 100 to 1000 nM. Regarding `COc1ccc2nc(Nc3cc(C)c4[nH]ncc4c3)c3n[nH]cc3c2c1` [Example #10, (8-Methoxy-2H-pyrazolo[3,4-c]quinolin-4-yl)-(7-methyl-1H-indazol-5-yl)-amine], the Ki was 10 to 100 nM.

In the case of `c1ccc2c(c1)nc(Nc1ccc3[nH]cnc3c1)c1n[nH]cc12` [Example #17, (1H-Benzoimidazol-5-yl)-(2H-pyrazolo[3,4-c]quinolin-4-yl)-amine], the Ki is 100 to 1000 nM. With `c1ccc2c(c1)nc(Nc1ccc3c(c1)OCO3)c1n[nH]cc12` [Example #22, Benzo[1,3]dioxol-5-yl-(2H-pyrazolo[3,4-c]quinolin-4-yl)-amine], the Ki was 100 to 1000 nM. As for `c1cncc(Nc2nc3ccccc3c3cn[nH]c23)c1` [Example #23, (3H-Pyrazolo[3,4-c]quinolin-4-yl)-pyridin-3-yl-amine], the figure is 100 to 1000 nM. As for `Cn1ncc2ccc(Nc3nc4ccccc4c4c[nH]nc34)cc21` [Example #24, (1-Methyl-1H-indazol-6-yl)-(2H-pyrazolo[3,4-c]quinolin-4-yl)-amine], the figure is 100 to 1000 nM; as for `COc1ccc(Nc2nc3ccccc3c3c[nH]nc23)cn1` [Example #25, (6-Methoxy-pyridin-3-yl)-(2H-pyrazolo[3,4-c]quinolin-4-yl)-amine], 100 to 1000 nM. Under `CN1CCN(c2ccc(Nc3nc4ccccc4c4c[nH]nc34)cc2)CC1` [Example #26, [4-(4-Methyl-piperazin-1-yl)-phenyl]-(2H-pyrazolo[3,4-c]quinolin-4-yl)-amine] stands 100 to 1000 nM. For `CN1CCCN(c2ccc(Nc3nc4ccccc4c4c[nH]nc34)cc2)CC1` [Example #27, [4-(4-Methyl-[1,4]diazepan-1-yl)-phenyl]-(2H-pyrazolo[3,4-c]quinolin-4-yl)-amine], the Ki is 100 to 1000 nM.

In the case of `c1ccc(Nc2nc3ccccc3c3cn[nH]c23)nc1` [Example #28, (3H-Pyrazolo[3,4-c]quinolin-4-yl)-pyridin-2-yl-amine], the Ki was 100 to 1000 nM. As to `c1ccc2cc(Nc3nc4ccccc4c4cn[nH]c34)ncc2c1` [Example #30, Isoquinolin-3-yl-(3H-pyrazolo[3,4-c]quinolin-4-yl)-amine], the Ki is 100 to 1000 nM. With `Cn1ncc2ccc(Nc3nc4ccc(Br)cc4c4c[nH]nc34)cc21` [Example #35, (8-Bromo-2H-pyrazolo[3,4-c]quinolin-4-yl)-(1-methyl-1H-indazol-6-yl)-amine], the Ki is 100 to 1000 nM. Consider `COc1cccc(Nc2nc3ccc(OC)cc3c3c[nH]nc23)c1` [Example #60, (3-Methoxy-phenyl)-(8-methoxy-2H-pyrazolo[3,4-c]quinolin-4-yl)-amine], for which the Ki is 10 to 100 nM.

Turning to `COc1ccc2nc(Nc3ccc4[nH]ccc4c3)c3[nH]ncc3c2c1` [Example #72, (1H-Indol-5-yl)-(8-methoxy-3H-pyrazolo[3,4-c]quinolin-4-yl)-amine], the Ki is 100 to 1000 nM. For the compound `COc1ccc2nc(Nc3ccc4cc[nH]c4c3)c3[nH]ncc3c2c1` [Example #75, (1H-Indol-6-yl)-(8-methoxy-3H-pyrazolo[3,4-c]quinolin-4-yl)-amine], the Ki was 100 to 1000 nM. For `COc1ccc2nc(Nc3cccc(N(C)C)c3)c3n[nH]cc3c2c1` [Example #76, N-(8-Methoxy-2H-pyrazolo[3,4-c]quinolin-4-yl)-N′,N′-dimethyl-benzene-1,3-diamine], the Ki is 100 to 1000 nM. Turning to `COc1ccc2nc(Nc3ccc(N4CCCC4)cc3)c3n[nH]cc3c2c1` [Example #79, (8-Methoxy-2H-pyrazolo[3,4-c]quinolin-4-yl)-(4-pyrrolidin-1-yl-phenyl)-amine], the Ki is 100 to 1000 nM. Regarding `c1ccc2c(c1)nc(Nc1ccc3[nH]ccc3c1)c1n[nH]cc12` [Example #82, (1H-Indol-5-yl)-(2H-pyrazolo[3,4-c]quinolin-4-yl)-amine], the Ki was 100 to 1000 nM. In the case of `Brc1ccc2nc(Nc3ccc(N4CCCCC4)cc3)c3n[nH]cc3c2c1` [Example #83, (8-Bromo-2H-pyrazolo[3,4-c]quinolin-4-yl)-(4-piperidin-1-yl-phenyl)-amine], the Ki was 100 to 1000 nM. Consider `COc1ccc2nc(Nc3ccc4[nH]ncc4c3)c3n[nH]cc3c2n1` [Example #90, (1H-Indazol-5-yl)-(8-methoxy-2H-2,3,5,9-tetraaza-cyclopenta[a]naphthalen-4-yl)-amine], for which the Ki was 100 to 1000 nM. Under `c1cc2c(cn1)nc(Nc1ccc3cn[nH]c3c1)c1n[nH]cc12` [Example #91, (1H-Indazol-6-yl)-(2H-2,3,5,7-tetraaza-cyclopenta[a]naphthalen-4-yl)-amine] stands 10 to 100 nM. As for `Brc1ccc2nc(Nc3ccc4[nH]ccc4c3)c3n[nH]cc3c2c1` [Example #99, (8-Bromo-2H-pyrazolo[3,4-c]quinolin-4-yl)-(1H-indol-5-yl)-amine], the figure is 100 to 1000 nM; as for `COc1ccc2nc(Nc3ccc4c(O)ncnc4c3)c3[nH]ncc3c2c1` [Example #110, 7-(8-Methoxy-3H-pyrazolo[3,4-c]quinolin-4-ylamino)-quinazolin-4-ol], 100 to 1000 nM; as for `COc1ccc(Nc2nc3cccnc3c3c[nH]nc23)cc1OC` [Example #123, (3,4-Dimethoxy-phenyl)-(2H-2,3,5,9-tetraaza-cyclopenta[a]naphthalen-4-yl)-amine], 10 to 100 nM. Regarding `COc1ccc2nc(Nc3nnc(C4CC4)[nH]3)c3n[nH]cc3c2c1` [Example #141, (5-Cyclopropyl-4H-[1,2,4]triazol-3-yl)-(8-methoxy-2H-pyrazolo[3,4-c]quinolin-4-yl)-amine], the Ki is 100 to 1000 nM.

Turning to `COc1ccc2nc(Nc3ccc4c(c3)COCO4)c3n[nH]cc3c2c1` [Example #146, (4H-Benzo[1,3]dioxin-6-yl)-(8-methoxy-2H-pyrazolo[3,4-c]quinolin-4-yl)-amine], the Ki was 100 to 1000 nM. As for `COc1ccc2nc(Nc3cc(C)ccn3)c3n[nH]cc3c2c1` [Example #154, (8-Methoxy-2H-pyrazolo[3,4-c]quinolin-4-yl)-(4-methyl-pyridin-2-yl)-amine], the Ki was 100 to 1000 nM. Consider `COc1ccc2nc(Nc3cc(C)cc(C)n3)c3n[nH]cc3c2c1` [Example #156, (4,6-Dimethyl-pyridin-2-yl)-(8-methoxy-2H-pyrazolo[3,4-c]quinolin-4-yl)-amine], for which the Ki is 100 to 1000 nM. Under `COc1ccc2nc(Nc3nc(C)cs3)c3n[nH]cc3c2c1` [Example #157, (8-Methoxy-2H-pyrazolo[3,4-c]quinolin-4-yl)-(4-methyl-thiazol-2-yl)-amine] stands 100 to 1000 nM; under `COc1ccc2nc(Nc3nc4c(s3)CCCC4)c3n[nH]cc3c2c1` [Example #158, (8-Methoxy-2H-pyrazolo[3,4-c]quinolin-4-yl)-(4,5,6,7-tetrahydro-benzothiazol-2-yl)-amine], 100 to 1000 nM; under `COc1ccc2nc(Nc3ccc(Oc4ccccc4)cc3)c3n[nH]cc3c2c1` [Example #159, (8-Methoxy-2H-pyrazolo[3,4-c]quinolin-4-yl)-(4-phenoxy-phenyl)-amine], 10 to 100 nM. With `COc1ccc2c(c1)nc(Nc1ccc(N3CCN(C)CC3)cc1)c1n[nH]cc12` [Example #176, (7-Methoxy-2H-pyrazolo[3,4-c]quinolin-4-yl)-[4-(4-methyl-piperazin-1-yl)-phenyl]-amine], the Ki was 10 to 100 nM.

Turning to `COc1ccc2nc(Nc3ccc(N(C)C)c(C)c3)c3n[nH]cc3c2c1` [Example #178, N4-(8-Methoxy-2H-pyrazolo[3,4-c]quinolin-4-yl)-2,N1,N1-trimethyl-benzene-1,4-diamine], the Ki was 10 to 100 nM. For the compound `COc1ccc2nc(Nc3ccc4c(c3)NC(=O)CN4)c3n[nH]cc3c2c1` [Example #182, 7-(8-Methoxy-2H-pyrazolo[3,4-c]quinolin-4-ylamino)-3,4-dihydro-1H-quinoxalin-2-one], the Ki was 10 to 100 nM. As for `COc1ccc2nc(Nc3ccc(Cc4ccccc4)cc3)c3n[nH]cc3c2c1` [Example #190, (4-Benzyl-phenyl)-(8-methoxy-2H-pyrazolo[3,4-c]quinolin-4-yl)-amine], the figure is 100 to 1000 nM.
